Earlier results on two molecules are cited in patent publication US20230106535A1, “TECHNIQUES FOR DETERMINING CALCIMIMETIC DRUG ACTIVITY” (Fresenius Medical Care Holdings, Inc., priority 2021, published 2023).

One may read the half-life as the time in which the quantity being followed falls by half.

One data set concerns corrected serum calcium. As to conditions: clinical studies.
Assay in data set [1]: not given
The source holds these as a separate data set.

The conditions of data set [2]: healthy subjects; plasma concentration declines tri-exponentially.
For data set [3], the system named is iPTH, serum ionized Ca, phosphate.
In the next data set the test system is PTH. As to conditions: n=343, Source E.
Setting [4] is: long term studies, within 12 weeks.

As for `CC(=O)N[C@H](CSSC[C@H](N)C(=O)O)C(=O)N[C@H](C)C(=O)N[C@H](CCCNC(=N)N)C(=O)N[C@H](CCCNC(=N)N)C(=O)N[C@H](CCCNC(=N)N)C(=O)N[C@H](C)C(=O)N[C@H](CCCNC(=N)N)C(N)=O` [etelcalcetide], the “time to steady state of etelcalcetide plasma concentration” value (clinical studies, multiple 2.5 mg or 5 mg administrations after every HD session) is “about 4 weeks”. Under “human, in vivo”, the “biotransformation resulting in (reversible) formation of SAPC” value is “roughly 60%” and the etelcalcetide undergoing biotransformation result was “approximately 90%”. For the same molecule, the half-life (patients on intermittent HD) was ~50 days. In addition, in the data set on corrected serum calcium, the “patients with at least one corrected calcium value below 8.3 mg/dl” value is on record as 79% and the “patients with at least one corrected serum calcium value below 7 mg/dl” value is “around 7.6%”. Besides, the “rate of conversion from SAPC to etelcalcetide relative to conversion of etelcalcetide to SAPC” value in data set [1] (faster) is reported as “roughly 16 fold”. Moreover, the “rate of conversion from SAPC to etelcalcetide relative to dialytic rate constant” value in data set [1] (slower) is recorded as “approximately 200 fold”. The “etelcalcetide dose cleared by HD” value in data set [1] (within 15 minutes, almost all cleared as intact etelcalcetide) is “approximately 70%”. In addition, the terminal half-life result in data set [2] is reported as “around 20 hours”. The “highest changes in Ca concentration” value in data set [3] (HD patients, after a 60 mg administration) is on record as “around 15%”. In data set [3] (HD patients, after administration, dose-dependent), the “time to decline of iCa concentration” value was ≤ 10 h. For the same molecule, the “time to lowering of intact PTH (iPTH)” value in data set [3] (after a single dose) is ≤ 30 min. The “time to iCa plateau” value in data set [3] (after a single dose administration) is 56 h. In data set [3] (setting [4]), the “iCa decline before reaching a plateau” value is listed as “around 10%” and the “phosphate decline before reaching a plateau” value is on record as ~5%. Moreover, the “time to plateau in iPTH” value in data set [3] (post single dose administration) is 1 h. Also, in data set [3] (post-administration), the “time to decrease in phosphate” value is “about 4 hours”. In data set [3] (single dose), the “time after which iCa gradually decreases” value is “about 18 hours”, the “time phosphate remains low” value was “about 4 days” and the “time serum ionized Ca (iCa) remains stable” value was 8 h.
Regarding `C[C@@H](NCCCc1cccc(C(F)(F)F)c1)c1cccc2ccccc12` [cinacalcet], in the data set with PTH, the “patients with PTH reduction >30% from baseline, clinical results” value is reported as 57.7% and the “patients with PTH reduction >50% from baseline, clinical results” value was 40.2%.
